This passage reports remaining activity % and IC50 results from PubChem BioAssay AID652282 (Vanderbilt Specialized Chemistry Center, 2013).

Test [1] is described as follows: blockade of BMP4-driven reporter signal – reporter cells, SAR follow-up (AID 652282). The following applies: BMP4-induced signaling reporter cell assay; at 10 µM (top of the series).
Test [2] relates to BMP4-induced signaling reporter cell assay. The description is as above.

As usually defined, the IC50 is the point on the concentration scale where inhibition reaches its midpoint.

Active and inactive are the calls of the source. How the calls were made is not given here.

Consider `c1cc(N2CCNCC2)ccc1-c1cnc2c(-c3cn[nH]c3)cnn2c1`, for which the remaining activity % in test [1] was -11.7.
`c1cc(N2CCOCC2)ccc1-c1cnc2c(-c3cn[nH]c3)cnn2c1`: in test [2], the IC50 was 172 nM.
On to `COc1ccc(-c2cnc3c(-c4cncc5ccccc45)cnn3c2)cc1`, for which, in test [2], the IC50 was 4900 nM.
Still for that read-out and setting: under `c1ccc2c(-c3cnn4cc(-c5ccc(N6CCOCC6)cc5)cnc34)csc2c1` stands 274 nM.
`Clc1cc(-c2cnn3cc(-c4ccc(N5CCOCC5)cc4)cnc23)ccn1`: the 50% inhibitory concentration (IC50) in test [2] is 609 nM.
As to `COc1ccc(-c2cnc3c(-c4ccnc5ccccc45)cnn3c2)cc1`, the remaining activity % in test [1] was -16.3.
Regarding `COc1ccc(-c2cnc3c(-c4cccc5cccnc45)cnn3c2)cc1`, the IC50 in test [2] was 6700 nM (inactive).
Same read-out and setting: the value for `c1ccc2c(-c3cnn4cc(-c5ccc(N6CCNCC6)cc5)cnc34)csc2c1` was 225 nM; that for `COc1ccc(-c2cnc3c(-c4cccc5ncccc45)cnn3c2)cc1` was 152 nM.
Regarding `Clc1cc(-c2cnn3cc(-c4ccc(N5CCNCC5)cc4)cnc23)ccn1`, the half-inhibitory concentration (IC50) in test [2] is 270 nM.
Consider `c1ccc2c(-c3cnn4cc(-c5ccc(N6CCOCC6)cc5)cnc34)ccnc2c1`, for which the remaining activity % in test [1] is -11.
For `COc1ccc(-c2cnc3c(-c4ccnc5ccsc45)cnn3c2)cc1`, the half-maximal inhibitory concentration (IC50) in test [2] was 4500 nM.
On the same count and under the same terms, under `COc1ccc(-c2cnc3c(-c4ccnc5ncccc45)cnn3c2)cc1` stands 38 nM.
